Consider 14 compounds from patent publication US9839642B2, “Beta-tetrazolyl-propionic acids as metallo-beta-lactamase inhibitors” (priority 2014, dated 2017).

SMILES strings stand for the structures. Bounds are passed on as bounds.

In one experiment the target is IMP-1 (Serratia marcescens, UniProt P52699). Kind of experiment: Enzyme activity: determination of IC50, fluorescence assay with CCF2-FA substrate. The class given is biochemical. The conditions noted are these: enzyme 2 pM, CCF2-FA 1.25 μM, 2 hours at 25° C.; read-out: IMP1 IC50. In short, it runs like this: (§1)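 Enzyme at 1 pM (NDM-1), 2 pM (IMP-1) or 30 pM (VIM-1) was incubated with inhibitor (20 μM to 0.00063 μM) and 1.25 μM CCF2-FA in 100 mM KH2PO4 pH 7, 0.005% Tween-20, 10 μM ZnSO4 for 2 hours at 25° C. Fluorescence was read at ex 405/em 460 nm; IC50 from 4-parameter fit.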
Chain of IMP-1 (P52699 19-246, looked up, species assumed): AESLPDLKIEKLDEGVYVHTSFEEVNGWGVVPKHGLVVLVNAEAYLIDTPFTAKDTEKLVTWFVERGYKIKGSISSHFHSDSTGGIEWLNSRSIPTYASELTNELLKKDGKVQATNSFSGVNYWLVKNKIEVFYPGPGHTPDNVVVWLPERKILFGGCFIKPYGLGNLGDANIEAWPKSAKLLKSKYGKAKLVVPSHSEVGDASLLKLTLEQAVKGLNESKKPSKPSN

A further experiment has as its target NDM-1 (Klebsiella pneumoniae, UniProt C7C422). Described as above. The class given is biochemical. The conditions noted are these: enzyme 1 pM, CCF2-FA 1.25 μM, 2 hours at 25° C.; read-out: NDM1 IC50. In short, it runs like this: as §1
The next experiment concerns the target VIM-1 (Pseudomonas aeruginosa, UniProt A0A0F7KYQ8). The experiment is described as above. The conditions noted are these: enzyme 30 pM, CCF2-FA 1.25 μM, 2 hours at 25° C.; read-out: VIM1 IC50. The class given is biochemical. In short, it runs like this: as §1
Experiment [1] concerns Escherichia coli expressing NDM-1 (CLB30005). Kind of experiment: Antibiotic potentiation activity: synergistic concentration (MITC95) with imipenem, growth by OD600. It counts as cell-based. The note with it: 95% inhibition of bacterial growth, strain CLB30005. In short, it runs like this:
(§2)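 Colonies from overnight agar plates (35 °C) were suspended in saline and diluted 1:100 into 1.1× CAMHB. Inhibitor (final 200 μM to 0.195 μM) was combined with imipenem at 1 or 4 μg/ml, incubated 22–24 h at 35 °C, and absorbance read; MITC95 is the lowest inhibitor concentration giving 95% growth inhibition.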

In experiment [2] the test system is Klebsiella pneumoniae expressing VIM-1 (IHMA599644). The description is as above. It counts as cell-based. The note with it: 95% inhibition of bacterial growth, strain IHMA599644. In short, it runs like this:
as §2

Experiment [3] concerns Serratia marcescens expressing IMP-1 (CL5741). Described as above. The class given is cell-based. The conditions noted are these: 95% inhibition of bacterial growth, strain CL5741. In short, it runs like this:
as §2

Chain of NDM-1 (C7C422 29-270, looked up, species assumed): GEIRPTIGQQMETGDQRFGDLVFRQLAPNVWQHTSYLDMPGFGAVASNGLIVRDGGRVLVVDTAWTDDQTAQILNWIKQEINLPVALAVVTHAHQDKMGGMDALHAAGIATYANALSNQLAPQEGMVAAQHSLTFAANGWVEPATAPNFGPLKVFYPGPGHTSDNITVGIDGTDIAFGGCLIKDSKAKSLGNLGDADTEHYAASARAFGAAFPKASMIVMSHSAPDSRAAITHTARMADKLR

The IC50 is the concentration needed to halve the response being measured. For the compound `CCC[C@H](C(=O)O)[C@H](Cc1ccc(-c2cccc(OC3CCNCC3)n2)cc1)c1nn[nH]n1` [Example 194, (2S)-2-[(1S)-2-{4-[6-(piperidin-4-yloxy)pyridin-2-yl]phenyl}-1-(2H-tetrazol-5-yl)ethyl]pentanoic acid], the IC50 on IMP-1 is 640 nM; on NDM-1 it was 170 nM; on VIM-1, 6.7 nM. The “NDM1 EC30005 MITC95” value in experiment [1] came out at 27 µM. For the same compound, in experiment [2], the “VIM1 KP599644 MITC95” value is 50 µM. Also, in experiment [3], the “IMP1 SM5741 MITC95” value came out at 75 µM.
For `CCC[C@H](C(=O)O)[C@H](Cc1ccc(-c2cccc(C3CCCNC3)c2)cc1)c1nn[nH]n1` (stereo partly drawn) [Example 195, (2S)-2-[(1S)-2-(3′-piperidin-3-ylbiphenyl-4-yl)-1-(2H-tetrazol-5-yl)ethyl]pentanoic acid], the IC50 on IMP-1 turned out to be 110 nM; at NDM-1 it was 85 nM; on VIM-1 it was 11 nM. The “NDM1 EC30005 MITC95” value in experiment [1] is 4.7 µM. The “VIM1 KP599644 MITC95” value in experiment [2] was found to be 38 µM. The “IMP1 SM5741 MITC95” value in experiment [3] was determined as 28 µM.
As to `CCC[C@H](C(=O)O)[C@H](Cc1ccc(-c2cnc(N3CCCC3)s2)cc1)c1nn[nH]n1` [Example 196, (2S)-2-[(1S)-2-[4-(2-pyrrolidin-1-yl-1,3-thiazol-5-yl)phenyl]-1-(2H-tetrazol-5-yl)ethyl]pentanoic acid], the IC50 at IMP-1 was 45 nM; at NDM-1 it was 9.5 nM; on VIM-1, 4.1 nM. Moreover, in experiment [1], the “NDM1 EC30005 MITC95” value was found to be 7.8 µM. Moreover, the “VIM1 KP599644 MITC95” value in experiment [2] is 125 µM. Further, in experiment [3], the “IMP1 SM5741 MITC95” value was 14 µM.
With `CCC[C@H](C(=O)O)[C@H](Cc1ccc(-c2ccc(S(N)(=O)=O)cc2)cc1)c1nn[nH]n1` [Example 197, (2S)-2-[(1S)-2-(4′-sulfamoylbiphenyl-4-yl)-1-(2H-tetrazol-5-yl)ethyl]pentanoic acid], the IC50 at IMP-1 worked out at 28 nM; on NDM-1 it was 4.9 nM; on VIM-1, 0.89 nM. Besides, the “NDM1 EC30005 MITC95” value in experiment [1] was 4.7 µM. In experiment [2], the “VIM1 KP599644 MITC95” value was found to be 18.8 µM. Besides, the “IMP1 SM5741 MITC95” value in experiment [3] worked out at 14 µM.
Take `CCC[C@H](C(=O)O)[C@H](Cc1ccc(-c2ccncc2)cc1)c1nn[nH]n1` [Example 198, (2S)-2-[(1S)-2-(4-pyridin-4-ylphenyl)-1-(2H-tetrazol-5-yl)ethyl]pentanoic acid]: the IC50 at IMP-1 came to 75 nM; on NDM-1, 14 nM; on VIM-1 it was 1.2 nM. The “NDM1 EC30005 MITC95” value in experiment [1] turned out to be 6.2 µM. Further, the “VIM1 KP599644 MITC95” value in experiment [2] was 18.8 µM. Also, the “IMP1 SM5741 MITC95” value in experiment [3] amounted to 6.2 µM.
Take `CCC[C@H](C(=O)O)[C@H](Cc1ccc(-c2ccc(N)nc2)cc1)c1nn[nH]n1` [Example 200, (2S)-2-[(1S)-2-[4-(6-aminopyridin-3-yl)phenyl]-1-(2H-tetrazol-5-yl)ethyl]pentanoic acid]: the IC50 on IMP-1 amounted to 34 nM; at NDM-1, 8.1 nM; on VIM-1 it was 1.5 nM. Also, the “NDM1 EC30005 MITC95” value in experiment [1] worked out at 4.7 µM. The “VIM1 KP599644 MITC95” value in experiment [2] turned out to be 18.8 µM. The “IMP1 SM5741 MITC95” value in experiment [3] was determined as 9.4 µM.
For `CCC[C@H](C(=O)O)[C@H](Cc1ccc(-c2cccc(C(N)=O)c2)cc1)c1nn[nH]n1` [Example 201, (2S)-2-[(1S)-2-(3′-carbamoylbiphenyl-4-yl)-1-(2H-tetrazol-5-yl)ethyl]pentanoic acid], the IC50 on IMP-1 amounted to 29 nM; on NDM-1, 9 nM; on VIM-1, 2.1 nM. In experiment [1], the “NDM1 EC30005 MITC95” value was determined as 7.8 µM. Also, in experiment [2], the “VIM1 KP599644 MITC95” value was determined as 62 µM. In addition, the “IMP1 SM5741 MITC95” value in experiment [3] amounted to 12.5 µM.
With `CCC[C@H](C(=O)O)[C@H](Cc1ccc(-c2ccc(C(=O)NC)cc2)cc1)c1nn[nH]n1` [Example 202, (2S)-2-[(1S)-2-[4′-(methylcarbamoyl)biphenyl-4-yl]-1-(2H-tetrazol-5-yl)ethyl]pentanoic acid], the IC50 at IMP-1 was 22 nM; on NDM-1, 5.9 nM; at VIM-1, 2.3 nM. In addition, the “NDM1 EC30005 MITC95” value in experiment [1] was 9.4 µM. Besides, the “VIM1 KP599644 MITC95” value in experiment [2] was determined as 50 µM. The “IMP1 SM5741 MITC95” value in experiment [3] is 4.7 µM.
In the case of `CCC[C@H](C(=O)O)[C@H](Cc1ccc(-c2ccc(N3CCOCC3)nc2)cc1)c1nn[nH]n1` [Example 203, (2S)-2-[(1S)-2-[4-(6-morpholin-4-ylpyridin-3-yl)phenyl]-1-(2H-tetrazol-5-yl)ethyl]pentanoic acid], the IC50 on IMP-1 was 60 nM; on NDM-1 it was 14 nM; on VIM-1, 4.3 nM. In addition, the “NDM1 EC30005 MITC95” value in experiment [1] is 9.4 µM. In addition, the “VIM1 KP599644 MITC95” value in experiment [2] came to 200 µM. In experiment [3], the “IMP1 SM5741 MITC95” value was determined as 9.4 µM.
With `CCC[C@H](C(=O)O)[C@H](Cc1ccc(-c2cnc(N3CCCCC3)s2)cc1)c1nn[nH]n1` [Example 204, (2S)-2-[(1S)-2-[4-(2-piperidin-1-yl-1,3-thiazol-5-yl)phenyl]-1-(2H-tetrazol-5-yl)ethyl]pentanoic acid], the IC50 on IMP-1 turned out to be 26 nM; at NDM-1, 3.4 nM; on VIM-1, 2.1 nM. Besides, the “NDM1 EC30005 MITC95” value in experiment [1] was determined as 3.9 µM. Further, the “VIM1 KP599644 MITC95” value in experiment [2] amounted to 100 µM. In addition, the “IMP1 SM5741 MITC95” value in experiment [3] was 4.7 µM.
Regarding `CCC[C@H](C(=O)O)[C@H](Cc1ccc(-c2ccccc2CN2CCCCC2)cc1)c1nn[nH]n1` [Example 205, (2S)-2-[(1S)-2-[2′-(piperidin-1-ylmethyl)biphenyl-4-yl]-1-(2H-tetrazol-5-yl)ethyl]pentanoic acid], the IC50 on IMP-1 turned out to be 63 nM; on NDM-1, 500 nM; at VIM-1, 360 nM. Besides, in experiment [1], the “NDM1 EC30005 MITC95” value was determined as 50 µM. In addition, in experiment [2], the “VIM1 KP599644 MITC95” value is greater than 200 µM. Moreover, the “IMP1 SM5741 MITC95” value in experiment [3] was determined as 7.8 µM.
With `CCC[C@H](C(=O)O)[C@H](Cc1ccc(-c2cccc(CN3CCCCC3)c2)cc1)c1nn[nH]n1` [Example 206, (2S)-2-[(1S)-2-[3′-(piperidin-1-ylmethyl)biphenyl-4-yl]-1-(2H-tetrazol-5-yl)ethyl]pentanoic acid], the IC50 was determined as 130 nM on IMP-1, 82 nM on NDM-1 and 7.2 nM at VIM-1. In experiment [1], the “NDM1 EC30005 MITC95” value worked out at 18.8 µM. Besides, the “VIM1 KP599644 MITC95” value in experiment [2] turned out to be 50 µM. Besides, in experiment [3], the “IMP1 SM5741 MITC95” value was 18.8 µM.
`CCC[C@H](C(=O)O)[C@H](Cc1ccc(-c2cccc(CN3CCOCC3)c2)cc1)c1nn[nH]n1` [Example 207, (2S)-2-[(1S)-2-[3′-(morpholin-4-ylmethyl)biphenyl-4-yl]-1-(2H-tetrazol-5-yl)ethyl]pentanoic acid]: the 50% inhibitory concentration (IC50) at IMP-1 was determined as 100 nM; at NDM-1, 64 nM; on VIM-1 it was 8 nM. Besides, in experiment [1], the “NDM1 EC30005 MITC95” value amounted to 16 µM. Also, the “VIM1 KP599644 MITC95” value in experiment [2] turned out to be 150 µM. Further, in experiment [3], the “IMP1 SM5741 MITC95” value turned out to be 16 µM.
Consider `CCC[C@H](C(=O)O)[C@H](Cc1ccc(-c2csc(N3CCOCC3)n2)cc1)c1nn[nH]n1` [Example 208, (2S)-2-[(1S)-2-[4-(2-morpholin-4-yl-1,3-thiazol-4-yl)phenyl]-1-(2H-tetrazol-5-yl)ethyl]pentanoic acid], for which the half-maximal inhibitory concentration (IC50) at IMP-1 turned out to be 100 nM; at NDM-1 it was 61 nM; on VIM-1 it was 16 nM. Also, in experiment [1], the “NDM1 EC30005 MITC95” value was found to be 25 µM. For the same compound, the “VIM1 KP599644 MITC95” value in experiment [2] was found to be 200 µM. Besides, in experiment [3], the “IMP1 SM5741 MITC95” value is 18.8 µM.
